Measured values as given in patent publication US12486240B2, “Oxadiazole compounds for controlling or preventing phytopathogenic fungi” (PI INDUSTRIES LTD., priority 2019, dated 2025).

Test system: Phakopsora pachyrhizi
Test: Phakopsora pachyrhizi test on soybean (preventive spray)
Format: in vivo
Conditions: preventive spray on soybean plants, inoculated one day after treatment, rated 3, 7, 10 and 15 days after application, read-out: Efficacy (% control) from disease severity rating versus untreated control
Procedure: Example 5: Phakopsora pachyrhizi Test on Soybean Compounds were dissolved in 2% dimethyl sulfoxide/acetone and then mixed with water containing an emulsifier to a calibrated spray volume of 50 mL. This 50 mL spray solution was poured into spray bottles for further applications. To test the preventive activity of compounds, healthy young Soybean plants raised in the greenhouse were sprayed with the active compound preparation at the stated application rates inside the spray cabinets using hollow cone nozzles. One day after treatment, the plants were inoculated with a spore suspension containing 2×10^5 Phakopsora pachyrhizi conidia. The inoculated plants were then kept in a greenhouse chamber at 22-24° C. temperature and 80-90% relative humidity for disease expression. A visual assessment of the compound's performance was carried out by rating the disease severity (0-100% scale) on treated plants 3, 7, 10 and 15 days after application. Efficacy (% control) of the compounds was calculated by comparing the disease rating in the treatment with the one of the untreated control. The sprayed plants were also assessed for plant compatibility by recording symptoms like necrosis, chlorosis and stunting.

SMILES | pest or weed control at 500 ppm
CN(Cc1ccccc1)c1c(Nc2ccc(-c3noc(C(F)(F)F)n3)cc2)c(=O)c1=O [Compound 1, 3-(benzyl(methyl)amino)-4-((4-(5-(trifluoromethyl)-1,2,4-oxadiazol-3-yl)phenyl)amino)cyclobut-3-ene-1,2-dione] | ≥ 70%
COc1c(Nc2ccc(-c3noc(C(F)(F)F)n3)cc2)c(=O)c1=O [Compound 2, 3-methoxy-4((4-(5-(trifluoromethyl)-1,2,4-oxadiazol-3-yl)phenyl)amino)cyclobut-3-ene-1,2-dione] | ≥ 70%
O=c1c(Nc2ccc(-c3noc(C(F)(F)F)n3)cc2)c(N2CCOCC2)c1=O [Compound 4, 3-morpholino-4((4-(5-(trifluoromethyl)-1,2,4-oxadiazol-3-yl)phenyl)amino)cyclobut-3-ene-1,2-dione] | ≥ 70%
COC1CCN(c2c(Nc3ccc(-c4noc(C(F)(F)F)n4)cc3)c(=O)c2=O)C1 (stereo not shown) [Compound 5, 3-(3-methoxypyrrolidin-1-yl)-4-((4-(5-(trifluoromethyl)-1,2,4-oxadiazol-3-yl)phenyl)amino)cyclobut-3-ene-1,2-dione] | ≥ 70%
CCOC1CN(c2c(Nc3ccc(-c4noc(C(F)(F)F)n4)cc3)c(=O)c2=O)C1 [Compound 6, 3-(3-ethoxyazetidin-1-yl)-4-((4-(5-(trifluoromethyl)-1,2,4-oxadiazol-3-yl)phenyl)amino)cyclobut-3-ene-1,2-dione] | ≥ 70%
O=c1c(Nc2ccc(-c3noc(C(F)(F)F)n3)cc2)c(N2CCC2)c1=O [Compound 9, 3-(azetidin-1-yl)-4-((4-(5-(trifluoromethyl)-1,2,4-oxadiazol-3-yl)phenyl)amino)cyclobut-3-ene-1,2-dione] | ≥ 70%
CN(Cc1cc(F)cc(F)c1)c1c(Nc2ccc(-c3noc(C(F)(F)F)n3)cc2)c(=O)c1=O [Compound 10, 3((3,5-difluorobenzyl)(methyl)amino)-4-((4-(5-(trifluoromethyl)-1,2,4-oxadiazol-3-yl)phenyl)amino)cyclobut-3-ene-1,2-dione] | ≥ 70%
CCCN(C)c1c(Nc2ccc(-c3noc(C(F)(F)F)n3)cc2)c(=O)c1=O [Compound 11, 3-(methyl(propyl)amino)-4-((4-(5-(trifluoromethyl)-1,2,4-oxadiazol-3-yl)phenyl)amino)cyclobut-3-ene-1,2-dione] | ≥ 70%
CN(C)c1c(Nc2ccc(-c3noc(C(F)(F)F)n3)cc2)c(=O)c1=O [Compound 12, 3-(dimethylamino)-4-((4-(5-(trifluoromethyl)-1,2,4-oxadiazol-3-yl)phenyl)amino)cyclobut-3-ene-1,2-dione] | ≥ 70%
O=C1CN(c2c(Nc3ccc(-c4noc(C(F)(F)F)n4)cc3)c(=O)c2=O)CCN1 [Compound 13, 3-(3-oxopiperazin-1-yl)-4-((4-(5-(trifluoromethyl)-1,2,4-oxadiazol-3-yl)phenyl)amino)cyclobut-3-ene-1,2-dione] | ≥ 70%
C=CCN(C)c1c(Nc2ccc(-c3noc(C(F)(F)F)n3)cc2)c(=O)c1=O [Compound 14, 3-(allyl(methyl)amino)-4-((4-(5-(trifluoromethyl)-1,2,4-oxadiazol-3-yl)phenyl)amino)cyclobut-3-ene-1,2-dione] | ≥ 70%
N#CC1CCN(c2c(Nc3ccc(-c4noc(C(F)(F)F)n4)cc3)c(=O)c2=O)C1 (stereo not shown) [Compound 15, 1-(3,4-dioxo-2-((4-(5-(trifluoromethyl)-1,2,4-oxadiazol-3-yl)phenyl)amino)cyclobut-1-en-1-yl)pyrrolidine-3-carbonitrile] | ≥ 70%
CN1CCN(c2c(Nc3ccc(-c4noc(C(F)(F)F)n4)cc3)c(=O)c2=O)CC1 [Compound 16, 3-(4-methylpiperazin-1-yl)-4-((4-(5-(trifluoromethyl)-1,2,4-oxadiazol-3-yl)phenyl)amino)cyclobut-3-ene-1,2-dione] | ≥ 70%
O=c1c(NCc2ccc(-c3noc(C(F)(F)F)n3)cc2)c(N2CCOCC2)c1=O [Compound 17, 3-morpholino-4-((4-(5-(trifluoromethyl)-1,2,4-oxadiazol-3-yl)benzyl)amino)cyclobut-3-ene-1,2-dione] | ≥ 70%
COc1c(NCc2ccc(-c3noc(C(F)(F)F)n3)cc2)c(=O)c1=O [Compound 18, 3-methoxy-4-((4-(5-(trifluoromethyl)-1,2,4-oxadiazol-3-yl)benzyl)amino)cyclobut-3-ene-1,2-dione] | ≥ 70%
COCCNc1c(NCc2ccc(-c3noc(C(F)(F)F)n3)cc2)c(=O)c1=O [Compound 19, 3-((2-methoxyethyl)amino)-4-((4-(5-(trifluoromethyl)-1,2,4-oxadiazol-3-yl)benzyl)amino)cyclobut-3-ene-1,2-dione] | ≥ 70%

SMILES | pest or weed control at 500 ppm
C=CCNc1c(NCc2ccc(-c3noc(C(F)(F)F)n3)cc2)c(=O)c1=O [Compound 20, 3-(allylamino)-4-((4-(5-(trifluoromethyl)-1,2,4-oxadiazol-3-yl)benzyl)amino)cyclobut-3-ene-1,2-dione] | ≥ 70%
O=c1c(NCc2ccc(-c3noc(C(F)(F)F)n3)cc2)c(N2CCSCC2)c1=O [Compound 31, 3-thiomorpholino-4-((4-(5-(trifluoromethyl)-1,2,4-oxadiazol-3-yl)benzyl)amino)cyclobut-3-ene-1,2-dione] | ≥ 70%
O=c1c(NCc2ccc(-c3noc(C(F)(F)F)n3)cc2)c(N2CC(O)C2)c1=O [Compound 32, 3-(3-hydroxyazetidin-1-yl)-4-((4-(5-(trifluoromethyl)-1,2,4-oxadiazol-3-yl)benzyl)amino)cyclobut-3-ene-1,2-dione] | ≥ 70%
O=c1c(NCc2ccc(-c3noc(C(F)(F)F)n3)cc2)c(N2CCC(F)(F)C2)c1=O [Compound 33, 3-(3,3-difluoropyrrolidin-1-yl)-4-((4-(5-(trifluoromethyl)-1,2,4-oxadiazol-3-yl)benzyl)amino)cyclobut-3-ene-1,2-dione] | ≥ 70%
COc1c(N(C)Cc2ccc(-c3noc(C(F)(F)F)n3)cc2)c(=O)c1=O [Compound 41, 3-methoxy-4-(methyl(4-(5-(trifluoromethyl)-1,2,4-oxadiazol-3-yl)benzyl)amino)cyclobut-3-ene-1,2-dione] | ≥ 70%
CN(Cc1ccc(-c2noc(C(F)(F)F)n2)cc1)c1c(N2CCOCC2)c(=O)c1=O [Compound 42, 3-(methyl(4-(5-(trifluoromethyl)-1,2,4-oxadiazol-3-yl)benzyl)amino)-4-morpholinocyclobut-3-ene-1,2-dione] | ≥ 70%
CN(Cc1ccc(-c2noc(C(F)(F)F)n2)cc1)c1c(N2CCCC2)c(=O)c1=O [Compound 44, 3-(methyl(4-(5-(trifluoromethyl)-1,2,4-oxadiazol-3-yl)benzyl)amino)-4-(pyrrolidin-1-yl)cyclobut-3-ene-1,2-dione] | ≥ 70%
COC1CN(c2c(N(C)Cc3ccc(-c4noc(C(F)(F)F)n4)cc3)c(=O)c2=O)C1 [Compound 45, 3-(3-methoxyazetidin-1-yl)-4-(methyl(4-(5-(trifluoromethyl)-1,2,4-oxadiazol-3-yl)benzyl)amino)cyclobut-3-ene-1,2-dione] | ≥ 70%
CN(Cc1ccc(-c2noc(C(F)(F)F)n2)cc1)c1c(N2CC(C#N)C2)c(=O)c1=O [Compound 46, 1-(2-(methyl(4-(5-(trifluoromethyl)-1,2,4-oxadiazol-3-yl)benzyl)amino)-3,4-dioxocyclobut-1-en-1-yl)azetidine-3-carbonitrile] | ≥ 70%
CN(Cc1ccc(-c2noc(C(F)(F)F)n2)cc1)c1c(N2CCC2)c(=O)c1=O [Compound 47, 3-(azetidin-1-yl)-4-(methyl(4-(5-(trifluoromethyl)-1,2,4-oxadiazol-3-yl)benzyl)amino)cyclobut-3-ene-1,2-dione] | ≥ 70%
CC(C)OC1CN(c2c(N(C)Cc3ccc(-c4noc(C(F)(F)F)n4)cc3)c(=O)c2=O)C1 [Compound 48, 3-(3-isopropoxyazetidin-1-yl)-4-(methyl(4-(5-(trifluoromethyl)-1,2,4-oxadiazol-3-yl)benzyl)amino)cyclobut-3-ene-1,2-dione] | ≥ 70%
CN(Cc1ccc(-c2noc(C(F)(F)F)n2)cc1)c1c(N2CC3(COC3)C2)c(=O)c1=O [Compound 49, 3-(methyl(4-(5-(trifluoromethyl)-1,2,4-oxadiazol-3-yl)benzyl)amino)-4-(2-oxa-6-azaspiro[3.3]heptan-6-yl)cyclobut-3-ene-1,2-dione] | ≥ 70%
CN(Cc1ccc(-c2noc(C(F)(F)F)n2)cc1)c1c(N2CCC(F)(F)C2)c(=O)c1=O [Compound 50, 3-(3,3-difluoropyrrolidin-1-yl)-4-(methyl(4-(5-(trifluoromethyl)-1,2,4-oxadiazol-3-yl)benzyl)amino)cyclobut-3-ene-1,2-dione] | ≥ 70%
CC(C)Nc1c(N(C)Cc2ccc(-c3noc(C(F)(F)F)n3)cc2)c(=O)c1=O [Compound 51, 3-(isopropylamino)-4-(methyl(4-(5-(trifluoromethyl)-1,2,4-oxadiazol-3-yl)benzyl)amino)cyclobut-3-ene-1,2-dione] | ≥ 70%
CN1CCN(c2c(N(C)Cc3ccc(-c4noc(C(F)(F)F)n4)cc3)c(=O)c2=O)CC1 [Compound 52, 3-(methyl(4-(5-(trifluoromethyl)-1,2,4-oxadiazol-3-yl)benzyl)amino)-4-(4-methylpiperazin-1-yl)cyclobut-3-ene-1,2-dione] | ≥ 70%
